Measurements reported in patent US10130096B2, “Method for protecting useful plants or plant propagation material” (SYNGENTA PARTICIPATIONS AG, priority 2011, dated 2018).

Legend:
[1] = test system: Pythium ultimum; experiment: Pythium ultimum liquid culture growth inhibition; type: cell-based; conditions: Globisporangium ultimum, photometric, 2-3 days after application, read-out: control on Pythium ultimum
Protocol: Mycelia fragments and oospores of a newly grown liquid culture of the fungus are directly mixed into nutrient broth (PDB potato dextrose broth). After placing a (DMSO) solution of test compound into a microtiter plate (96-well format), the nutrient broth containing the fungal mycelia/spore mixture is added.

[2] = test system: Fusarium culmorum; experiment: Fusarium culmorum liquid culture growth inhibition; type: cell-based; conditions: photometric, 3-4 days after application, read-out: control on Fusarium culmorum
Protocol: (§1) Conidia of the fungus from cryogenic storage are directly mixed into nutrient broth (PDB potato dextrose broth). After placing a (DMSO) solution of test compound into a microtiter plate (96-well format), the nutrient broth containing the fungal spores is added. The test plates are incubated at 24° C. and the inhibition of growth is determined photometrically 3-4 days after application.

[3] = test system: Alternaria solani; experiment: Alternaria solani on tomato plants; type: in vivo; conditions: 4-week old tomato plants cv. Roter Gnom, spray, inoculated two days after application
Protocol: 4-week old tomato plants cv. Roter Gnom are sprayed in a spray chamber with the formulated test compound diluted in water. The test plants are inoculated by spraying them with a spore suspension two days after application. The inoculated test plants are incubated at 22/18° C. (day/night) and 95% rh in a greenhouse and the percentage leaf area covered by disease is assessed when an appropriate level of disease appears on untreated check plants (5-7 days after application).

[4] = test system: Monographella nivalis (Microdochium nivale); experiment: Monographella nivalis liquid culture growth inhibition; type: cell-based; conditions: photometric, 4-5 days after application, read-out: control on Monographella nivalis
Protocol: as §1, with “4-5” for “3-4”

[5] = test system: Botryotinia fuckeliana (Botrytis cinerea); experiment: Botryotinia fuckeliana liquid culture growth inhibition; type: cell-based; conditions: photometric, 3-4 days after application, read-out: control on Botryotinia fuckeliana
Protocol: Conidia of the fungus from cryogenic storage are directly mixed into nutrient broth (Vogels broth). After placing a (DMSO) solution of test compound into a microtiter plate (96-well format), the nutrient broth containing the fungal spores is added.

[6] = test system: Glomerella lagenarium (Colletotrichum lagenarium); experiment: Glomerella lagenarium liquid culture growth inhibition; type: cell-based; conditions: Colletotrichum orbiculare, photometric, 3-4 days after application, read-out: control on Glomerella lagenarium
Protocol: (§2) Conidia of the fungus from cryogenic storage are directly mixed into nutrient broth (PDB potato dextrose broth). After placing a (DMSO) solution of test compound into a microtiter plate (96-well format), the nutrient broth containing the fungal spores is added.

[7] = test system: Mycosphaerella arachidis (Cercospora arachidicola); experiment: Mycosphaerella arachidis liquid culture growth inhibition; type: cell-based; conditions: photometric, 4-5 days after application, read-out: control on Mycosphaerella arachidis
Protocol: as §2

[8] = test system: Thanatephorus cucumeris (Rhizoctonia solani); experiment: Thanatephorus cucumeris liquid culture growth inhibition; type: cell-based; conditions: photometric, 3-4 days after application, read-out: control on Thanatephorus cucumeris
Protocol: Mycelia fragments of a newly grown liquid culture of the fungus are directly mixed into nutrient broth (PDB potato dextrose broth). After placing a (DMSO) solution of the test compounds into a microtiter plate (96-well format), the nutrient broth containing the fungal material is added. The test plates are incubated at 24° C. and the inhibition of growth is determined photometrically 3-4 days after application.

[9] = test system: Pythium ultimum; experiment: Example B-5: seed treatment against Pythium ultimum on cotton; type: in vivo; conditions: Globisporangium ultimum, rate of 200 g/100 kg seeds, infested soil, number of germinated, healthy plants
Protocol: The trial is kept for 1 week in a growth room at 20° C. and darkness. After this period the trial is transferred to a greenhouse where a temperature of 21° C. and a 14 h light period is provided until the trial is finished. The following assessments are made: number of germinated, healthy plants. Each number is determined for 150 seeds per treatment (3 replicates a 50 seeds).

| Compound | inhibition of growth at 200 ppm [1] [%] | inhibition of growth at 200 ppm [2] [%] | pest or weed control at 60 ppm [3] [%] | inhibition of growth at 200 ppm [4] [%] | inhibition of growth at 200 ppm [5] [%] | inhibition of growth at 200 ppm [6] [%] | inhibition of growth at 200 ppm [7] [%] | inhibition of growth at 200 ppm [8] [%] | pest or weed control at 200 g/100 kg seeds [9] [%] |
| --- | --- | --- | --- | --- | --- | --- | --- | --- | --- |
| NCC(OB1OCc2cc(Cl)ccc21)c1ccccc1 (stereo not drawn) [Compound 3, 2-(5-Chloro-3H-benzo[c][1,2]oxaborol-1-yloxy)-2-phenyl-ethylamine] | ≥ 80 | ≥ 80 | ≥ 60 | ≥ 80 | ≥ 80 | ≥ 80 | ≥ 80 |  |  |
| OB1OCc2ccc(Cl)cc21 [Compound 6, 6-Chloro-3H-benzo[c][1,2]oxaborol-1-ol] | ≥ 80 | ≥ 80 |  | ≥ 80 | ≥ 80 | ≥ 80 | ≥ 80 | ≥ 80 |  |
| OB1OCc2ccccc21 [Compound 11, 3H-Benzo[c][1,2]oxaborol-1-ol] | ≥ 80 | ≥ 80 |  |  | ≥ 80 | ≥ 80 | ≥ 80 |  | ≥ 50 |
| OB1OCc2cc3ccccc3cc21 [Compound 15, 3H-2-Oxa-1-bora-cyclopenta[b]naphthalen-1-ol] | ≥ 80 | ≥ 80 | ≥ 60 | ≥ 80 | ≥ 80 | ≥ 80 | ≥ 80 |  |  |
| OB1OCc2c1ccc1ccccc21 [Compound 16, 1H-2-Oxa-3-bora-cyclopenta[a]naphthalen-3-ol] |  |  |  | ≥ 80 | ≥ 80 | ≥ 80 | ≥ 80 |  |  |
| NCCOB1OCc2c1ccc1ccccc21 [Compound 18, 2-(1H-2-Oxa-3-bora-cyclopenta[a]naphthalen-3-yloxy)-ethylamine] | ≥ 80 | ≥ 80 | ≥ 60 | ≥ 80 |  | ≥ 80 | ≥ 80 |  |  |
| OB1OC(c2ccccc2)c2ccccc21 (stereo not drawn) [Compound 19, 3-Phenyl-3H-benzo[c][1,2]oxaborol-1-ol] | ≥ 80 |  |  | ≥ 80 |  | ≥ 80 | ≥ 80 |  |  |
| N[C@H](COB1OCc2cc(Cl)ccc21)Cc1ccccc1 [Compound 20, (S)-1-Benzyl-2-(5-chloro-3H-benzo[c][1,2]oxaborol-1-yloxy)-ethylamine] | ≥ 80 | ≥ 80 |  | ≥ 80 | ≥ 80 | ≥ 80 | ≥ 80 | ≥ 80 |  |
| CC(C)(N)COB1OCc2cc(Cl)ccc21 [Compound 21, 2-(5-Chloro-3H-benzo[c][1,2]oxaborol-1-yloxy)-1,1-dimethyl-ethylamine] | ≥ 80 | ≥ 80 |  | ≥ 80 | ≥ 80 | ≥ 80 | ≥ 80 | ≥ 80 |  |
| Clc1ccc2c(c1)COB2Oc1cccc2cccnc12 [Compound 22, 8-(5-Chloro-3H-benzo[c][1,2]oxaborol-1-yloxy)-quinoline] | ≥ 80 | ≥ 80 |  | ≥ 80 | ≥ 80 | ≥ 80 | ≥ 80 | ≥ 80 |  |
| N[C@@H](COB1OCc2cc(Cl)ccc21)c1ccccc1 [Compound 23, (R)-2-(5-Chloro-3H-benzo[c][1,2]oxaborol-1-yloxy)-1-phenyl-ethylamine] | ≥ 80 | ≥ 80 |  | ≥ 80 | ≥ 80 | ≥ 80 | ≥ 80 |  |  |
| Clc1ccc2c(c1)COB2OC[C@@H]1CCCN1 [Compound 24, (S)-2-(5-Chloro-3H-benzo[c][1,2]oxaborol-1-yloxymethyl)-pyrrolidine] | ≥ 80 | ≥ 80 |  | ≥ 80 | ≥ 80 | ≥ 80 | ≥ 80 | ≥ 80 |  |
| N[C@H](COB1OCc2cc(Cl)ccc21)c1ccccc1 [Compound 25, (S)-2-(5-Chloro-3H-benzo[c][1,2]oxaborol-1-yloxy)-1-phenyl-ethylamine] | ≥ 80 | ≥ 80 |  | ≥ 80 | ≥ 80 | ≥ 80 | ≥ 80 |  |  |
| CC(CN)OB1OCc2cc(Cl)ccc21 (stereo not drawn) [Compound 27, 2-(5-Chloro-3H-benzo[c][1,2]oxaborol-1-yloxy)-propylamine] | ≥ 80 | ≥ 80 | ≥ 60 | ≥ 80 | ≥ 80 | ≥ 80 | ≥ 80 | ≥ 80 |  |
| CC(N)COB1OCc2cc(Cl)ccc21 (stereo not drawn) [Compound 28, 2-(5-Chloro-3H-benzo[c][1,2]oxaborol-1-yloxy)-1-methyl-ethylamine] | ≥ 80 | ≥ 80 | ≥ 60 | ≥ 80 | ≥ 80 | ≥ 80 | ≥ 80 | ≥ 80 |  |
| c1ccc2c(c1)COB2Oc1cccc2cccnc12 [Compound 31, 8-(3H-Benzo[c][1,2]oxaborol-1-yloxy)-quinoline] | ≥ 80 | ≥ 80 |  | ≥ 80 | ≥ 80 | ≥ 80 | ≥ 80 |  |  |
| CC(C)(N)COB1OCc2ccccc21 [Compound 32, 2-(3H-Benzo[c][1,2]oxaborol-1-yloxy)-1,1-dimethyl-ethylamine] | ≥ 80 | ≥ 80 |  | ≥ 80 | ≥ 80 | ≥ 80 | ≥ 80 |  |  |
| CC(C)(C)c1ccc2c(c1)COB2OCCN [Compound 33, 2-(5-tert-Butyl-3H-benzo[c][1,2]oxaborol-1-yloxy)-ethylamine] |  |  |  |  |  |  | ≥ 80 |  |  |
| CC(C)(C)c1ccc2c(c1)COB2O [Compound 34, 5-tert-Butyl-3H-benzo[c][1,2]oxaborol-1-ol] |  |  |  | ≥ 80 |  | ≥ 80 | ≥ 80 |  |  |
| NCCOB1OCc2cc(Oc3ccccc3)ccc21 [Compound 35, 2-(5-Phenoxy-3H-benzo[c][1,2]oxaborol-1-yloxy)-ethylamine] |  |  |  | ≥ 80 |  | ≥ 80 | ≥ 80 |  |  |
| NCCOB1OCc2cc(Cl)ccc21 [Compound 36, 2-(5-Chloro-3H-benzo[c][1,2]oxaborol-1-yloxy)-ethylamine] | ≥ 80 | ≥ 80 |  | ≥ 80 | ≥ 80 | ≥ 80 | ≥ 80 | ≥ 80 |  |
